Results on 50 compounds are retold here after patent publication US20230391756A1, “NEW COMPOUND” (JANSSEN PHARMACEUTICA NV, priority 2020, published 2023).

One experiment concerns TNF. In words: PBMC assay: TNF cytokine level after LPS stimulation. In kind it is cell-based. The conditions noted are these: human PBMCs, 100 ng/ml LPS for 6 hrs, MSD, read-out: TNFα EC50. The protocol:
(§1) Peripheral venous blood was collected from healthy individuals and human peripheral blood mononuclear cells (PBMCs) were isolated from blood by Ficoll-Histopaque (Sigma-Aldrich, A0561) density gradient centrifugation. After isolation, PBMCs were stored in liquid nitrogen for later use. Upon thawing, PBMC cell viability was determined in growth medium (RPMI media supplemented with 10% fetal bovine serum, 1% Pen-Strep and 1% L-glutamine). […] PBMCs were added at a density of 7.5×10^4 cells per well and incubated for 30 min in a 5% CO2 incubator at 37° C. LPS stimulation was performed by addition of 100 ng/ml LPS (final concentration, Invivogen, tlrl-smlps) for 6 hrs followed by collection of cellular supernatant and the analysis of IL-1β (μM) and TNF cytokines levels (μM) via MSD technology according to manufacturers' guidelines (MSD, K151A0H).

Experiment [1] has as its system NLRP3 inflammasome pathway (IL-1β). The experiment in a line: PBMC assay: IL-1β release after LPS stimulation. In kind it is cell-based. The settings on record: human PBMCs, 100 ng/ml LPS for 6 hrs, MSD. The protocol: The activity of a compound according to the present invention can be assessed by in vitro methods.
as §1

As to `CC(C)n1nc(CC(=O)Nc2ccc3nncn3n2)c(=O)c2ccc(C3CC3)cc21` [F-133, N-([1,2,4]triazolo[4,3-b]pyridazine-6-yl)-2-(7-cyclopropyl-1-isopropyl-4-oxo-1,4-dihydrocinnolin-3-yl)acetamide], the EC50 in the experiment on TNF came out at 15.6 µM. The same compound gave a half-maximal inhibitory concentration (IC50) in experiment [1] of 0.16 µM.

Take `CC(C)n1nc(CC(=O)Nc2cn3cnnc3cn2)c(=O)c2ccc(C(F)(F)F)cc21` [F-112]: the EC50 in the experiment with TNF was above 20 µM. This compound also came in with an IC50 in experiment [1] of 0.53 µM. Consider `CC(C)n1nc(CC(=O)Nc2nc3cnccn3n2)c(=O)c2ccc(C(F)(F)F)cc21` [F-124], for which the EC50 with TNF was above 20 µM. In experiment [1], this compound had an IC50 of 0.123 µM.

On to `CC(C)n1nc(CC(=O)Nc2nc3nccc(C4CC4)n3n2)c(=O)c2ccc(C(F)(F)F)cc21` [F-120], for which, in the experiment on TNF, the EC50 was above 20 µM. This compound also showed an IC50 in experiment [1] of 11.6 µM. Regarding `CC(C)n1nc(CC(=O)Nc2nc3cc(Cl)ccc3o2)c(=O)c2ccc(C(F)(F)F)cc21` [F-102], the EC50 with TNF was above 20 µM. The same compound yielded an IC50 in experiment [1] of 6.03 µM. Taken in the same sequence, the figures for `CC(C)n1nc(CC(=O)Nc2cc3ncccn3n2)c(=O)c2ccc(C(F)(F)F)cc21` [F-125] were above 20 µM and 2.59 µM.

With `Cc1nnc2n1C[C@@H](NC(=O)Cc1nn(C(C)C)c3cc(C(F)(F)F)ccc3c1=O)CC2` (single isomer, unassigned) [F-13], in the experiment on TNF, the EC50 is above 20 µM. The IC50 in experiment [1] stood at 2.7 µM. Consider `CCn1nc(CC(=O)Nc2ccc3nncn3c2)c(=O)c2ccc(C3CC3)cc21` [F-82], for which the EC50 in the experiment on TNF was above 20 µM. This compound yielded an IC50 in experiment [1] of 0.18 µM.

As to `CC(C)n1nc(CC(=O)Nc2nc3ccc(Cl)cc3n2C)c(=O)c2ccc(C(F)(F)F)cc21` [F-89], the EC50 with TNF was above 20 µM. Besides, the IC50 in experiment [1] is above 20 µM. On to `CC(C)n1nc(CC(=O)Nc2nc3c(Cl)cccn3n2)c(=O)c2ccc(C(F)(F)F)cc21` [F-117], for which the EC50 in the experiment on TNF is above 20 µM. Moreover, the IC50 in experiment [1] was 0.835 µM.

In the case of `CC(C)n1nc(CC(=O)Nc2cn3cccnc3n2)c(=O)c2ccc(C(F)(F)F)cc21` [F-123], the EC50 in the experiment with TNF is above 20 µM. This compound also registered an IC50 in experiment [1] of 1.97 µM. The corresponding values for `CC(C)n1nc(CC(=O)Nc2ccn3ccnc3c2)c(=O)c2ccc(C(F)(F)F)cc21` [F-38] are above 20 µM and 1.75 µM. The corresponding values for `COc1ccc2nc(NC(=O)Cc3nn(C(C)C)c4cc(C(F)(F)F)ccc4c3=O)nn2c1` [F-119] are above 20 µM and 2.18 µM. For `CCn1nc(CC(=O)Nc2ccc3nncn3n2)c(=O)c2ccc(Br)cc21` [F-73], the EC50 in the experiment with TNF is above 20 µM. The compound also had an IC50 in experiment [1] of 0.06 µM. Taken in the same sequence, the figures for `CC(C)n1nc(CC(=O)Nc2cc(F)[nH]c(=O)c2)c(=O)c2ccc(C(F)(F)F)cc21` [F-130, N-(6-fluoro-2-oxo-1,2-dihydropyridin-4-yl)-2-(1-isopropyl-4-oxo-7-(trifluoromethyl)-1,4-dihydrocinnolin-3-yl)acetamide] were 11.2 µM and 0.86 µM. In the case of `CC(C)n1nc(CC(=O)Nc2ccc3nncn3c2)c(=O)c2ccc(Br)cc21` [F-4], the EC50 in the experiment on TNF was 9.56 µM. 0.071 µM corresponded to half-maximal inhibition in experiment [1] (IC50).

Consider `CC(F)(F)c1ccc2c(=O)c(CC(=O)Nc3ccc4nncn4n3)nn(C3CC3)c2c1` [F-72], for which the concentration for a half-maximal effect (EC50) in the experiment with TNF was 6.23 µM. The compound further registered an IC50 in experiment [1] of 0.096 µM.

For `CC(C)n1nc(CC(=O)Nc2nc3cc(Br)ccc3n2C)c(=O)c2ccc(C(F)(F)F)cc21` [F-90], in the experiment on TNF, the EC50 is above 20 µM. This compound showed an IC50 in experiment [1] above 20 µM. `CC(C)n1nc(CC(=O)Nc2ccc3nncn3n2)c(=O)c2ccc(Br)cc21` [F-134]: in the experiment on TNF, the EC50 was above 20 µM. Also, half-maximal inhibition in experiment [1] (IC50) required 0.048 µM. Taken in the same sequence, the figures for `CC(C)n1nc(CC(=O)Nc2ccn3ncnc3c2)c(=O)c2ccc(C(F)(F)F)cc21` [F-37] were above 20 µM and 1.65 µM.

Turning to `CC(C)n1nc(CC(=O)Nc2ccc3nc(C(F)(F)F)cn3c2)c(=O)c2ccc(C(F)(F)F)cc21` [F-131], the EC50 with TNF was above 20 µM. In experiment [1], this compound yielded an IC50 of 0.656 µM. Taken in the same sequence, the figures for `CCn1nc(CC(=O)N[C@H]2C[C@@](C)(OC(=O)Cc3nn(CC)c4cc(Br)ccc4c3=O)C2)c(=O)c2ccc(Br)cc21` [F-23] were above 10 µM and above 10 µM. For `CCn1nc(CC(=O)Nc2ccncn2)c(=O)c2ccc(Br)cc21` [F-7], the EC50 in the experiment on TNF was above 20 µM. For the same compound, the IC50 in experiment [1] is 0.45 µM. Regarding `CCn1nc(CC(=O)Nc2ccc3nncn3c2)c(=O)c2ccc(C(C)C)cc21` [F-69], the EC50 in the experiment with TNF was found to be 17.4 µM. In experiment [1], this compound displayed an IC50 of 0.166 µM. With `CC(C)n1nc(CC(=O)Nc2ccncn2)c(=O)c2ccc(C3CC3)cc21` [F-79, 2-(7-cyclopropyl-1-isopropyl-4-oxo-1,4-dihydrocinnolin-3-yl)-N-(pyrimidin-4-yl)acetamide], the EC50 in the experiment on TNF came out at 16.6 µM. For the compound `CC(C)n1nc(CC(=O)Nc2ccc3nncn3n2)c(=O)c2ccc(C(F)(F)F)cc21` [F-143], the EC50 with TNF came out at 7.58 µM. Besides, in experiment [1], the IC50 was 0.109 µM.

In the case of `CCN1CC[C@H](C)[C@H](NC(=O)Cc2nn(C(C)C)c3cc(C(F)(F)F)ccc3c2=O)C1` (single isomer, unassigned) [F-103], in the experiment on TNF, the EC50 is above 20 µM. In addition, half-maximal inhibition in experiment [1] (IC50) required 4.97 µM.

Turning to `CC(C)n1nc(CC(=O)Nc2ccc3ncn(C)c3n2)c(=O)c2ccc(C(F)(F)F)cc21` [F-54], the EC50 in the experiment with TNF is above 20 µM. In addition, half-maximal inhibition in experiment [1] (IC50) was put at 0.685 µM. With `CC(C)n1nc(CC(=O)NC2CC(C(C)(C)O)C2)c(=O)c2ccc(C(F)(F)F)cc21` (stereo not drawn) [F-9], the EC50 with TNF was above 20 µM. This compound also showed an IC50 in experiment [1] of 10.2 µM. Turning to `Cc1ccn2nc(NC(=O)Cc3nn(C(C)C)c4cc(C(F)(F)F)ccc4c3=O)nc2c1` [F-122], the EC50 in the experiment with TNF is above 20 µM. The IC50 in experiment [1] amounted to 0.354 µM. As to `O=C(Cc1nn(C2CC2)c2cc(Br)ccc2c1=O)Nc1ccc2nncn2n1` [F-144], the EC50 with TNF was above 20 µM. Besides, the midpoint of inhibition in experiment [1], the IC50, lay at 0.078 µM. In the case of `CC(C)n1nc(CC(=O)Nc2ccc(C(F)F)nn2)c(=O)c2ccc(C(F)(F)F)cc21` [F-87], the EC50 with TNF was above 20 µM. The compound further displayed an IC50 in experiment [1] of 13.4 µM. Taken in the same sequence, the figures for `CCn1nc(CC(=O)Nc2ccc3nncn3n2)c(=O)c2ccc(C(C)C)cc21` [F-142] were around 12.8 µM and 0.119 µM. With `CC(C)n1nc(CC(=O)Nc2nc3ccc(Br)nn3n2)c(=O)c2ccc(C(F)(F)F)cc21` [F-118], the EC50 with TNF was above 10 µM. For the same compound, half-maximal inhibition in experiment [1] (IC50) was put at 1.61 µM. For `CC(C)n1nc(CC(=O)Nc2ccc(=O)n(C)n2)c(=O)c2ccc(C(C)(F)F)cc21` [F-53], in the experiment with TNF, the EC50 turned out to be 9.74 µM. In experiment [1], this compound registered an IC50 of 0.71 µM.

In the case of `CC(C)n1nc(CC(=O)Nc2cn3cc(Br)ncc3n2)c(=O)c2ccc(C(F)(F)F)cc21` [F-116, N-(6-bromoimidazo[1,2-a]pyrazin-2-yl)-2-(1-isopropyl-4-oxo-7-(trifluoromethyl)-1,4-dihydrocinnolin-3-yl)acetamide], the EC50 in the experiment on TNF was above 20 µM. The IC50 in experiment [1] came out at 3.8 µM. For `CC(C)n1nc(CC(=O)Nc2cc3c(cn2)ncn3C)c(=O)c2ccc(C(F)(F)F)cc21` [F-44], the EC50 with TNF is above 20 µM. Moreover, in experiment [1], the IC50 is 4.91 µM. Consider `CCn1nc(CC(=O)Nc2ccc3nccn3n2)c(=O)c2ccc(C(C)(F)F)cc21` [F-65], for which the EC50 in the experiment with TNF was 8.36 µM. The compound further returned an IC50 in experiment [1] of 0.24 µM.

On to `CC(C)n1nc(CC(=O)N[C@H]2C[C@@](C)(O)C2)c(=O)c2ccc(C3CC3)cc21` [F-80], for which the EC50 with TNF is above 20 µM. The compound also yielded an IC50 in experiment [1] of 1.21 µM. For `Cc1nnc2n1C[C@H](NC(=O)Cc1nn(C(C)C)c3cc(C(F)(F)F)ccc3c1=O)CC2` (single isomer, unassigned) [F-12], the EC50 with TNF was above 20 µM. For the same compound, in experiment [1], the IC50 is above 20 µM. For the compound `O=C(Cc1nn(C2CC2)c2cc(C3CC3)ccc2c1=O)Nc1ccc2nncn2c1` [F-59], the EC50 in the experiment with TNF was above 20 µM. The same compound returned an IC50 in experiment [1] of 0.37 µM. Regarding `CC(C)n1nc(CC(=O)Nc2ccc(C(F)(F)F)nn2)c(=O)c2ccc(C(F)(F)F)cc21` [F-84, 2-(1-isopropyl-4-oxo-7-(trifluoromethyl)-1,4-dihydrocinnolin-3-yl)-N-(6-(trifluoromethyl)pyridazine-3-yl)acetamide], the EC50 with TNF is above 20 µM. This compound also registered an IC50 in experiment [1] above 20 µM. As to `CC(C)n1nc(CC(=O)Nc2nc3ccc(C(F)(F)F)cn3n2)c(=O)c2ccc(C(F)(F)F)cc21` [F-121], in the experiment with TNF, the EC50 is above 20 µM. Also, the IC50 in experiment [1] turned out to be 6.87 µM. Consider `O=C(Cc1nn(C2CC2)c2cc(C3CC3)ccc2c1=O)Nc1ccc2nncn2n1` [F-137], for which the EC50 in the experiment with TNF amounted to 4.46 µM. In experiment [1], this compound returned an IC50 of 0.28 µM. The corresponding values for `CC(C)n1nc(CC(=O)Nc2ccc3nncn3c2)c(=O)c2ccc(C3CC3)cc21` [F-81] are 7.11 µM and 0.166 µM.

Take `CCn1nc(CC(=O)Nc2ccncn2)c(=O)c2ccc(C3CC3)cc21` [F-8]: the EC50 in the experiment with TNF is 12.9 µM. Also, the IC50 in experiment [1] was 0.66 µM. As for `CCS(=O)(=O)c1ccc2oc(NC(=O)Cc3nn(C(C)C)c4cc(C(F)(F)F)ccc4c3=O)nc2c1` [F-105], the EC50 in the experiment with TNF is above 20 µM. Moreover, the IC50 in experiment [1] was determined as 2.4 µM. As to `Cc1ccn2nc(NC(=O)Cc3nn(C(C)C)c4cc(C(F)(F)F)ccc4c3=O)nc2n1` [F-128], the EC50 in the experiment on TNF was above 20 µM. For the same compound, the IC50 in experiment [1] amounted to 0.66 µM. As for `Cc1nnc2ccc(NC(=O)Cc3nn(C(C)C)c4cc(C(F)(F)F)ccc4c3=O)nn12` [F-135], the EC50 in the experiment with TNF is above 20 µM. In experiment [1], this compound displayed an IC50 of 0.59 µM. Taken in the same sequence, the figures for `CC(C)n1nc(CC(=O)Nc2nc3ncc(Br)cn3n2)c(=O)c2ccc(C(F)(F)F)cc21` [F-129] were above 20 µM and 3.23 µM.

By EC50 is commonly meant the concentration giving half of the maximal effect. In general, IC50 refers to the concentration that gives 50% inhibition. Lower therefore signals greater potency in that assay.
